According to patent US5179217A, “Method of preparing photochemotherapic alkylangelicin compounds” (priority 1982, dated 1993):
“And” between values parts separate entries of the source, which are not always exact repeats. Equal values may be shown once. Read-outs that look alike come from different tables or passages of the source.

Columns and labels:
DNA [1] = assay: Binding parameters of the complexes between 6-alkylangelicins and DNA (in the dark); set-up: K values: unit not given here; settings: for -n (number of nucleotides occluded by one bound molecule) / l/-n (frequency of binding sites, ligands bound per nucleotide): according to Mc Ghee and Von Hippel; for K values: complex with DNA
Source text: (§1) The 6-alkylangelicins show a strong affinity with DNA in the dark, thus forming molecular intercalated complexes; moreover the 6-methylangelicins complexed to DNA by irradiation bind very strongly to the macromolecule, inducing only monofunctional lesions (Table I).
(§2) Binding parameters of the complexes between 6-alkylangelicins and DNA
^a According to Mc Ghee and Von Hippel, (J.Mol. Biol., 86, 469, 1974)
-n is defined here as the number of nucleotides occluded by one bound
molecule of angelicin derivative.
^b l/-n defines, according to Mc Ghee and Von Hippel, the frequency o
binding sites; in other words, the number of ligands bound per nucleotide
and can be considered analogous to the "-n" value obtained by the classic
Scratchard method (Ann. N.Y. Acad. Sci., 51, 660, 1949).

DNA [2] = assay: Rate constant of photoreaction with DNA; format: biochemical; settings: irradiation
Source text: as §1, §2
and rate constant of their photoreactions with the macromolecule.

[3] = system: Ehrlich ascites tumor cells; assay: Inhibition of DNA synthesis in Ehrlich ascites tumor cells; format: cell-based; settings: relative to angelicin = 100
Source text: (§3) The 6-alkylangelicins show a strong antiproliferative activity in Ehrlich ascites tumor cells (Table II) and on the skin of mice in terms of DNA synthesis inhibition (Table III). These compounds are practically unable to induce skin phototoxicity on albino guinea-pig skin (Table II).
(§4) (a) Determined according to Bordin et al., Il Farmaco, Ed.Sc., 36, 506,

albino guinea-pig skin = assay: Skin erythemogenic activity / skin phototoxicity on albino guinea-pig skin; settings: in vivo
Source text: as §3, §4

epidermal DNA synthesis [4] = assay: Inhibition of epidermal DNA synthesis in the mouse in vivo after topical application and UV-A irradiation; settings: topical 50 μg/cm^2, UV-A 9 J/cm^2, ± S.E.
Protocol: Inhibition of epidermal DNA synthesis in the mouse "in vivo"
after topical application (50 μg/cm^2) of the compound and

epidermal DNA synthesis [5] = assay: Inhibition of epidermal DNA synthesis in the mouse in vivo after oral administration and UV-A irradiation; settings: light or radiation study, read-out: % inhibition of epidermal DNA synthesis
Protocol: The strong activity of the 6-alkylangelicins according to the invention in inhibiting the epidermal DNA synthesis of mice after oral administration (see Table VI) allows to consider these compounds effective also by oral administration in humans and UV-A irradiation.
Inhibition of epidermal DNA synthesis
in the mouse "in vivo" after oral
administration of the compound (250 mg/kg)
and UV-A irradiation (9 J/cm^2) (a).
as §4

psoriatic lesions = settings: for % clearance: topical 5 μg/cm^2 + UV-A (maximal dose 4-10 J/cm^2), 9-15 treatments; for dark pigmentation of human skin: treated area, patients
Protocol: In the treated patients various areas 4×4 cm of the affected skin were used:
a) in the first area an ethanolic solution (0.1% W/V) of the compound under investigation, was applied until a concentration of 5 μg/cm^2 was reached and left to evaporate by the heat of the body (or by hot air stream).
c) a third area was treated in the same way as area a), but was not irradiated with UV-A;
d) a fourth area was irradiated as in a) with the same dose of UV-A light in the absence of any compound.

E. coli WP2-uvr A = format: cell-based
Protocol: Mutagenic activity of 6-alkylangelicins on E. coli
WP2-uvr A by irradiation with UV-A (a).
(a) The test was performed at the furocoumarin concentration of 5 μg/m
according to Venturini et al., Chem. Biol. Interactions, 30, 203, 1980.

[6] = Acute toxicity (LD50) in mice; settings: mouse, in vivo
DNA [7] = settings: reference compound; data from Dall'Acqua et al. 1979; cited from earlier work
DNA [8] = settings: reference compound; data from Dall'Acqua et al. 1979; cited from earlier work; remark: listed apart in the source
mice = assay: Acute toxicity (LD50) in mice; settings: mice, per os; 6,4'-dimethylangelicin in methylcellulose suspension
[9] = mouse in vivo, oral 250 mg/kg, UV-A 9 J/cm^2, ± S.E.
[10] = UV-A irradiation time 10 seconds
[11] = UV-A irradiation time 20 seconds
[12] = UV-A irradiation time 30 seconds
[13] = UV-A irradiation time 60 seconds

Structure (SMILES) | -n (number of nucleotides occluded by one bound molecule) (DNA [1]) | l/-n (frequency of binding sites, ligands bound per nucleotide) (DNA [1]) | K values (DNA [1]) | rate constant of photoreaction with DNA (DNA [2]) | Relative activity (inhibition of DNA synthesis in Ehrlich ascites tumor cells) [3] | skin erythemogenic activity (albino guinea-pig skin) | % inhibition of epidermal DNA synthesis (epidermal DNA synthesis [4]) | inhibition at 250 mg/kg (epidermal DNA synthesis [5]; [9]) | no of mutants per 10^6 survivors (E. coli WP2-uvr A; [10]) | no of mutants per 10^6 survivors (E. coli WP2-uvr A; [11]) | no of mutants per 10^6 survivors (E. coli WP2-uvr A; [12]) | no of mutants per 10^6 survivors (E. coli WP2-uvr A; [13]) | also measured
Cc1cc2ccc(=O)oc2c2c(C)coc12 [6,4'-dimethylangelicin] | 16.39 | 0.061 ± 0.003 | 6,300 ± 541 | 9.90 min^-1 × 10^2 | 1096 | - | 36.56 ± 3.9% | 49.2 ± 8% | 0.96 mutants per 10^6 survivors | 1.76 mutants per 10^6 survivors | 2.63 mutants per 10^6 survivors |  | skin phototoxicity on guinea-pig skin (albino guinea-pig skin): absence of skin phototoxicity on guinea-pig skin; pigmental capacity (psoriatic lesions; single psoriatic patients, topical 5 μg/cm^2 + UV-A): +; % clearance (psoriatic lesions; single psoriatic patients, listed as 6,4'-DMA): 100% and 90%; dark pigmentation of human skin (psoriatic lesions): evident dark pigmentation in the treated area, less pronounced than that induced by 8-MOP; genotoxicity, mutagenic activity (E. coli WP2-uvr A): low genotoxicity; LD50 ([6]; ip): 750 mg/kg; LD50 ([6]; po): > 2000 mg/kg
Cc1cc2c(o1)c(C)cc1c(C)cc(=O)oc12 [6,4,5'-trimethylangelicin] | 22.22 | 0.045 ± 0.002 | 3,310 ± 281 | 7.02 min^-1 × 10^2 | 646 | - |  | 36.8 ± 8.5% | 0.62 mutants per 10^6 survivors | 0.91 mutants per 10^6 survivors | 1.23 mutants per 10^6 survivors | 1.93 mutants per 10^6 survivors | 
Cc1c(C)c2occc2c2oc(=O)ccc12 [6,5-dimethylangelicin] |  |  |  |  |  |  | 52.83 ± 2.3% | 50.1 ± 19% |  |  |  |  | 
O=c1ccc2ccc3occc3c2o1 [angelicin] | 15.87 | 0.063 ± 0.003 | 560 | 1.10 min^-1 × 10^2 |  |  | 17.5 ± 2.5% |  |  |  |  |  | inhibition at 250 mg/kg (epidermal DNA synthesis [5]; Mus musculus, po): 28 ± 2%
COc1c2occc2cc2ccc(=O)oc12 [8-MOP, 8-methoxypsoralen, reference compound] |  |  |  |  |  | ++ | 61.0 ± 1.6% | 39.1 ± 3.7% | 0.4 mutants per 10^6 survivors | 1.15 mutants per 10^6 survivors | 1.5 mutants per 10^6 survivors | 3.1 mutants per 10^6 survivors | induction of skin erythema in humans (psoriatic lesions; human, in vivo): severe phototoxic response; no of mutants per 10^6 survivors (E. coli WP2-uvr A; UV-A irradiation time 90 seconds): 7.0 mutants per 10^6 survivors; -n (number of nucleotides occluded by one bound molecule) (DNA [7]): 7.81; K values (DNA [7]): 736; l/-n (frequency of binding sites, ligands bound per nucleotide) (DNA [7]): 0.128; rate constant of photoreaction with DNA (DNA [8]): 3.10 min^-1 × 10^2; LD50 ([6]; ip): 300 mg/kg; LD50 (mice): 750 mg/kg
Cc1cc(=O)oc2c1cc(C)c1occ(C)c12 [6,4,4'-trimethylangelicin] | 10.99 | 0.091 ± 0.0045 | 10,100 ± 1190 | 13.30 min^-1 × 10^2 | 41666 | - |  | 67.7 ± 8.2% | 0.84 mutants per 10^6 survivors | 1.18 mutants per 10^6 survivors | 1.24 mutants per 10^6 survivors | 1.98 mutants per 10^6 survivors | skin phototoxicity on guinea-pig skin (albino guinea-pig skin): absence of skin phototoxicity on guinea-pig skin; % clearance (psoriatic lesions; single psoriatic patients, listed as 6,4,4'-TMA): 100% and 95% and 90%; dark pigmentation of human skin (psoriatic lesions): appears more active; genotoxicity, mutagenic activity (E. coli WP2-uvr A): low genotoxicity
Cc1cc2c(o1)c(C)c(C)c1ccc(=O)oc12 [6,5,5'-trimethylangelicin] | 14.29 | 0.070 ± 0.0035 | 3,730 ± 339 | 2.30 min^-1 × 10^2 |  |  | 36.01 ± 11.7% | 60.6 ± 14.1% |  |  |  |  | 
Cc1cc2c(o1)c(C)cc1ccc(=O)oc12 [6,5'-dimethylangelicin] | 12.82 | 0.078 ± 0.004 | 1,975 ± 136 | 3.00 min^-1 × 10^2 | 210 | - |  | 22.5 ± 12% |  |  |  |  | 
Cc1cc(=O)oc2c1cc(C)c1occc12 [6,4-dimethylangelicin] | 15.87 | 0.063 ± 0.003 | 2,990 ± 232 | 5.23 min^-1 × 10^2 | 625 | - | 47.05 ± 4.3% | 58.4 ± 13% | 0.24 mutants per 10^6 survivors | 0.7 mutants per 10^6 survivors | 0.99 mutants per 10^6 survivors | 1.83 mutants per 10^6 survivors | 
Cc1cc2ccc(=O)oc2c2ccoc12 [6-methylangelicin] | 20.83 | 0.048 ± 0.002 | 925 ± 64 | 3.60 min^-1 × 10^2 | 95 | - | 29.25 ± 13.3% | 19.6 ± 9.2% |  |  |  |  | 
